Legend:
Mus musculus [1] = experiment: Inhibition of FAAH in mouse liver at 30 mg/kg, po after 1 hr; type: functional; conditions: values are per cent of control
Mus musculus [2] = experiment: Inhibition of FAAH in mouse brain at 30 mg/kg, po after 1 hr; type: functional; conditions: values are per cent of control
Mus musculus [3] = experiment: Inhibition of FAAH in mouse brain at 30 mg/kg, po after 24 hrs; type: functional; conditions: values are per cent of control
Mus musculus [4] = experiment: Inhibition of FAAH in mouse brain at 30 mg/kg, po after 4 hrs; type: functional; conditions: values are per cent of control
Mus musculus [5] = experiment: Inhibition of FAAH in mouse liver at 30 mg/kg, po after 24 hrs; type: functional; conditions: values are per cent of control
Mus musculus [6] = experiment: Inhibition of FAAH in mouse liver at 30 mg/kg, po after 4 hrs; type: functional; conditions: values are per cent of control
Mus musculus [7] = experiment: Inhibition of FAAH in mouse brain at 30 mg/kg, po after 8 hrs; type: functional; conditions: values are per cent of control
Mus musculus [8] = experiment: Inhibition of FAAH in mouse liver at 30 mg/kg, po after 8 hrs; type: functional; conditions: values are per cent of control
[9] = biological target: T1, Fatty-acid amide hydrolase 1 (Rattus norvegicus) (UniProt P97612); experiment: Inhibition of FAAH in rat brain homogenates using [3H]-anandamide as substrate assessed as formation of [3H]-ethanolamine at 10 uM relative to control; type: tissue-based; conditions: values are per cent of control
T1 sequence (whole entry): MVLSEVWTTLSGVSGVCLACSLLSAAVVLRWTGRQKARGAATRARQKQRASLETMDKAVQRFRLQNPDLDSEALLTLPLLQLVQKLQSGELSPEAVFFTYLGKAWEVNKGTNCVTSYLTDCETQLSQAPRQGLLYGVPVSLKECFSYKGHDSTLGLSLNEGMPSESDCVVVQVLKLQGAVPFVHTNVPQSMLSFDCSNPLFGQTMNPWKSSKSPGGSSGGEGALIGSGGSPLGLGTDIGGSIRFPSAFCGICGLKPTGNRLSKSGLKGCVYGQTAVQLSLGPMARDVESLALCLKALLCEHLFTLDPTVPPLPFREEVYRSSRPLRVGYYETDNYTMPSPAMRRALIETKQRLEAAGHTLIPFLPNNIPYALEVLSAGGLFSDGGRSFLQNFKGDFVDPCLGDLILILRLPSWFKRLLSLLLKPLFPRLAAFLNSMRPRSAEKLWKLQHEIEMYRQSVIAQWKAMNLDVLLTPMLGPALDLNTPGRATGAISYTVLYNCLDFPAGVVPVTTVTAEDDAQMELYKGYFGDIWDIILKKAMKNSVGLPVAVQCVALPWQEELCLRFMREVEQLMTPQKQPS

Mus musculus [10] = experiment: Inhibition of FAAH in mouse brain at 10 mg/kg, po after 24 hrs; type: functional; conditions: values are per cent of control
Mus musculus [11] = experiment: Inhibition of FAAH in mouse liver at 10 mg/kg, po after 4 hrs; type: functional; conditions: values are per cent of control
Mus musculus [12] = experiment: Inhibition of FAAH in mouse liver at 10 mg/kg, po after 24 hrs; type: functional; conditions: values are per cent of control
Mus musculus [13] = experiment: Inhibition of FAAH in mouse brain at 10 mg/kg, po after 8 hrs; type: functional; conditions: values are per cent of control
Mus musculus [14] = experiment: Inhibition of FAAH in mouse liver at 10 mg/kg, po after 1 hr; type: functional; conditions: values are per cent of control
Mus musculus [15] = experiment: Inhibition of FAAH in mouse liver at 10 mg/kg, po after 8 hrs; type: functional; conditions: values are per cent of control
Mus musculus [16] = experiment: Inhibition of FAAH in mouse brain at 10 mg/kg, po after 4 hrs; type: functional; conditions: values are per cent of control
Mus musculus [17] = experiment: Inhibition of FAAH in mouse brain at 10 mg/kg, po after 1 hr; type: functional; conditions: values are per cent of control
[18] = biological target: T2, Fatty-acid amide hydrolase 1 (Homo sapiens, UniProt O00519); experiment: Inhibition of FAAH (unknown origin)
T2 sequence (O00519 whole entry): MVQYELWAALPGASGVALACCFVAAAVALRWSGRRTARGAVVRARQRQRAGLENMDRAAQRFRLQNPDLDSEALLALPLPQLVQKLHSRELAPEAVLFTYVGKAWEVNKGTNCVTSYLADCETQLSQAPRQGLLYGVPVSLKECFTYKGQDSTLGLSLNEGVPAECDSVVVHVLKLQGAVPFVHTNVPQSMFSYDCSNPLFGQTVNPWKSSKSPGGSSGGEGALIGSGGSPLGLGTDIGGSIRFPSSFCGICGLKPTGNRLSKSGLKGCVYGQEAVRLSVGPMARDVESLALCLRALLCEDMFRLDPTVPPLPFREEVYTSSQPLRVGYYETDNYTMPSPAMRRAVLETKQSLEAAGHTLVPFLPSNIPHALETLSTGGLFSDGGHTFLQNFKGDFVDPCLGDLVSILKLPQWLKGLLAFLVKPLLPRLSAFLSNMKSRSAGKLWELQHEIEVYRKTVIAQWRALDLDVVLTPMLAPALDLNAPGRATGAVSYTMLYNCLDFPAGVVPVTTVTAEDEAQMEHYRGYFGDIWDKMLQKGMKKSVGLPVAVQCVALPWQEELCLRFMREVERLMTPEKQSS

| SMILES | residual activity at 30 mg/kg (Mus musculus [1]) [%] | residual activity at 30 mg/kg (Mus musculus [2]) [%] | other results |
| --- | --- | --- | --- |
| O=c1oc(Oc2ccc([N+](=O)[O-])cc2)nn1-c1ccc(O)cc1 | 45 | 96 |  |
| O=c1oc(Oc2ccc(Cl)cc2)nn1-c1cccc(O)c1 | 10 | 100 |  |
| O=c1oc(Oc2ccc(Cl)cc2Cl)nn1-c1ccc(O)cc1 | 9 | 59 | residual activity at 30 mg/kg (Mus musculus [3]): 99%; residual activity at 30 mg/kg (Mus musculus [4]): 72%; residual activity at 30 mg/kg (Mus musculus [5]): 103%; residual activity at 30 mg/kg (Mus musculus [6]): 18%; residual activity at 30 mg/kg (Mus musculus [7]): 52%; residual activity at 30 mg/kg (Mus musculus [8]): 11% |
| O=c1oc(Oc2ccccc2)nn1-c1ccc(F)cc1F | 65 | 86 |  |
| O=c1oc(-c2ccccc2)nn1-c1ccccc1 |  |  | residual activity [9]: 110% |
| O=c1oc(OCc2ccccc2)nn1Cc1ccccc1 |  |  | residual activity [9]: 86% |
| O=c1oc(Oc2ccc(F)cc2F)nn1-c1ccccc1 | 39 | 94 |  |
| O=c1oc(Oc2ccc(Cl)cc2)nn1-c1ccc(O)cc1F | 4 | 64 | residual activity at 30 mg/kg (Mus musculus [3]): 80%; residual activity at 30 mg/kg (Mus musculus [4]): 34%; residual activity at 30 mg/kg (Mus musculus [5]): 79%; residual activity at 30 mg/kg (Mus musculus [7]): 57%; residual activity at 30 mg/kg (Mus musculus [8]): 7% |
| O=c1oc(Cc2ccccc2)nn1-c1ccccc1 |  |  | residual activity [9]: 97% |
| O=c1oc(Oc2ccc(F)cc2)nn1-c1ccc(O)cc1 | 30 | 82 |  |
| COc1cc(Br)ccc1Oc1nn(-c2ccccc2)c(=O)o1 | 83 | 101 |  |
| O=c1oc(Oc2ccc(Cl)cc2)nn1-c1ccc(O)c(O)c1 | 5 | 83 | residual activity at 10 mg/kg (Mus musculus [10]): 102%; residual activity at 10 mg/kg (Mus musculus [11]): 17%; residual activity at 10 mg/kg (Mus musculus [12]): 91%; residual activity at 10 mg/kg (Mus musculus [13]): 96%; residual activity at 10 mg/kg (Mus musculus [14]): 10%; residual activity at 10 mg/kg (Mus musculus [15]): 38%; residual activity at 10 mg/kg (Mus musculus [16]): 90%; residual activity at 10 mg/kg (Mus musculus [17]): 99% |
| O=c1oc(Oc2ccccc2)nn1-c1ccc(O)cc1 | 46 | 97 |  |
| COc1ccc(Oc2nn(-c3ccccc3)c(=O)o2)cc1 | 94 | 108 |  |
| COc1nn(-c2ccc(Oc3ccccc3)cc2)c(=O)o1 |  |  | IC50 [18]: 6.1 nM |
| O=c1oc(Oc2ccc(F)cc2F)nn1-c1cccc(O)c1 | 12 | 94 |  |
| O=c1oc(Oc2ccc(F)cc2F)nn1-c1ccc(O)c(O)c1 | 4 | 66 | residual activity at 10 mg/kg (Mus musculus [10]): 104%; residual activity at 10 mg/kg (Mus musculus [11]): 18%; residual activity at 10 mg/kg (Mus musculus [12]): 79%; residual activity at 10 mg/kg (Mus musculus [13]): 103%; residual activity at 10 mg/kg (Mus musculus [14]): 6%; residual activity at 10 mg/kg (Mus musculus [15]): 27%; residual activity at 10 mg/kg (Mus musculus [16]): 100%; residual activity at 10 mg/kg (Mus musculus [17]): 102% |
| O=c1oc(Oc2ccc(F)cc2F)nn1-c1ccc(O)cc1 | 12 | 86 |  |
| O=c1oc(Oc2ccccc2F)nn1-c1ccc(O)cc1 | 44 | 94 |  |
| COc1nn(-c2cccc(Cl)c2)c(=O)o1 |  |  | residual activity [9]: 5% |
| O=C(c1ccccc1)c1nn(-c2ccccc2)c(=O)o1 |  |  | residual activity [9]: 84% |
| O=c1oc(Oc2ccc(Cl)cc2)nn1-c1ccccc1 | 81 | 110 |  |
| O=c1oc(N2CCOCC2)nn1-c1cccc(Cl)c1 |  |  | residual activity [9]: 104% |
| O=c1oc(Oc2ccccc2)nn1-c1ccccc1F | 72 |  |  |
| O=c1oc(Oc2ccccc2)nn1-c1cccc(O)c1 | 33 | 95 |  |
| O=c1oc(Oc2ccc(F)cc2)nn1-c1cccc(O)c1 | 24 | 99 |  |
| O=c1oc(Oc2ccc(Cl)cc2)nn1-c1ccc(O)cc1 | 20 | 38 |  |

From ChEMBL document CHEMBL3217452, “Design, synthesis, and structureactivity relationships of 1,3,4-oxadiazol-2(3H)-ones as novel FAAH inhibitors” (Medchemcomm, 2011)
